Measurements published in ChEMBL document CHEMBL1144978, “A new series of potent benzodiazepine gamma-secretase inhibitors” (Bioorg Med Chem Lett, 2003).

test: Inhibitory activity against human gamma-secretase using SH-SY5Y cells.; format: cell-based

**Q.** Which IC50 does the source give for `CN1C(=O)[C@@H](NC(=O)[C@H](Cc2ccc(F)c(F)c2)c2ccc(F)cc2)N=C(c2ccccc2)c2ccccc21` here?
**A.** 3.8 nM

**Q.** With `C[C@@H](Cc1ccc(Cl)c(Cl)c1)C(=O)N[C@H]1N=C(c2ccccc2)c2ccccc2N(C)C1=O` as the compound, how does the IC50 read?
**A.** 320 nM

**Q.** With `CN1C(=O)C(NC(=O)CCc2cccc(Cl)c2)N=C(c2ccc(C(N)=O)cc2)c2ccccc21` (centres undefined) as the compound, how does the IC50 read?
**A.** 93 nM

**Q.** Which IC50 does the source give for `CN1C(=O)[C@@H](NC(=O)C(Cc2ccc(Cl)c(Cl)c2)c2ccsc2)N=C(c2ccccc2)c2ccccc21` (some centres undefined) here?
**A.** 100 nM

**Q.** Which IC50 does the source give for `COc1ccccc1CCC(=O)NC1N=C(c2ccc(C(N)=O)cc2)c2ccccc2N(C)C1=O` (centres undefined) here?
**A.** 5100 nM

**Q.** For `CN1C(=O)[C@@H](NC(=O)[C@H](Cc2ccc(Cl)c(Cl)c2)N2CCCC2)N=C(c2ccccc2)c2ccccc21`, which IC50 is on record?
**A.** 350 nM

**Q.** For `CN1C(=O)C(NC(=O)CCc2cccc(Cl)c2Cl)N=C(c2ccc(C(N)=O)cc2)c2ccccc21` (centres undefined), which IC50 is on record?
**A.** 22 nM

**Q.** For `C[C@@H](Cc1ccc(F)c(F)c1)C(=O)N[C@H]1N=C(c2ccccc2)c2ccccc2N(C)C1=O`, which IC50 is on record?
**A.** 220 nM

**Q.** Which IC50 does the source give for `CN1C(=O)[C@@H](NC(=O)C(Cc2ccc(Cl)c(Cl)c2)c2cccs2)N=C(c2ccccc2)c2ccccc21` (some centres undefined) here?
**A.** 37 nM

**Q.** Which IC50 does the source give for `CN1C(=O)[C@@H](NC(=O)[C@H](Cc2ccc(Cl)c(Cl)c2)c2ccc(Br)cc2)N=C(c2ccccc2)c2ccccc21` here?
**A.** 100 nM

**Q.** Which IC50 does the source give for `C[C@@H](Cc1ccc(Cl)cc1Cl)C(=O)NC1N=C(c2ccc(C(N)=O)cc2)c2ccccc2N(C)C1=O` (single isomer, unassigned; diastereomer A) here?
**A.** 500 nM

**Q.** For `CN1C(=O)C(NC(=O)CCc2ccccc2)N=C(c2ccc(C(N)=O)cc2)c2ccccc21` (centres undefined), which IC50 is on record?
**A.** 340 nM

**Q.** For `CN1C(=O)[C@@H](NC(=O)C(Cc2ccc(Cl)c(Cl)c2)c2ccncc2)N=C(c2ccccc2)c2ccccc21` (single isomer, unassigned; diastereomer A), which IC50 is on record?
**A.** 1360 nM

**Q.** With `CN1C(=O)C(NC(=O)CCc2ccc(F)c(F)c2)N=C(c2ccc(C(N)=O)cc2)c2ccccc21` (centres undefined) as the compound, how does the IC50 read?
**A.** 29 nM

**Q.** Which IC50 does the source give for `CN1C(=O)C(NC(=O)CCc2c(Cl)cccc2Cl)N=C(c2ccc(C(N)=O)cc2)c2ccccc21` (centres undefined) here?
**A.** 3200 nM

**Q.** With `C[C@H](Cc1ccc(Cl)cc1Cl)C(=O)NC1N=C(c2ccc(C(N)=O)cc2)c2ccccc2N(C)C1=O` (single isomer, unassigned; diastereomer A) as the compound, how does the IC50 read?
**A.** 42 nM

**Q.** Which IC50 does the source give for `CN1C(=O)C(NC(=O)CCc2cc(Cl)cc(Cl)c2)N=C(c2ccc(C(N)=O)cc2)c2ccccc21` (centres undefined) here?
**A.** 40 nM

**Q.** With `CN1C(=O)C(NC(=O)CCc2ccc(Cl)cc2Cl)N=C(c2ccc(C(N)=O)cc2)c2ccccc21` (centres undefined) as the compound, how does the IC50 read?
**A.** 33 nM

**Q.** Which IC50 does the source give for `CC(Cc1ccc(Cl)cc1Cl)C(=O)NC1N=C(c2ccc(C(N)=O)cc2)c2ccccc2N(C)C1=O` (centres undefined) here?
**A.** 8 nM

**Q.** For `CC(C)C(Cc1ccc(Cl)c(Cl)c1)C(=O)N[C@H]1N=C(c2ccccc2)c2ccccc2N(C)C1=O` (single isomer, unassigned; diastereomer A), which IC50 is on record?
**A.** 440 nM

**Q.** Which IC50 does the source give for `C[C@@H](Cc1ccc(Cl)cc1Cl)C(=O)N[C@@H]1N=C(c2ccccc2)c2ccccc2N(C)C1=O` here?
**A.** > 10000 nM

**Q.** With `CN1C(=O)C(NC(=O)CCc2ccc(O)cc2)N=C(c2ccc(C(N)=O)cc2)c2ccccc21` (centres undefined) as the compound, how does the IC50 read?
**A.** > 10000 nM

**Q.** For `CN1C(=O)[C@@H](NC(=O)[C@H](Cc2ccc(Cl)c(Cl)c2)c2ccccc2)N=C(c2ccccc2)c2ccccc21`, which IC50 is on record?
**A.** 180 nM

**Q.** For `CN1C(=O)C(NC(=O)CCc2ccc(Cl)c(Cl)c2)N=C(c2ccc(C(N)=O)cc2)c2ccccc21` (centres undefined), which IC50 is on record?
**A.** 12 nM

**Q.** With `CN1C(=O)C(NC(=O)CCCc2ccccc2)N=C(c2ccc(C(N)=O)cc2)c2ccccc21` (centres undefined) as the compound, how does the IC50 read?
**A.** 5000 nM

**Q.** With `CN1C(=O)C(NC(=O)CCc2ccc(N)cc2)N=C(c2ccc(C(N)=O)cc2)c2ccccc21` (centres undefined) as the compound, how does the IC50 read?
**A.** > 10000 nM

**Q.** With `CN1C(=O)C(NC(=O)CCc2cc(F)cc(F)c2)N=C(c2ccc(C(N)=O)cc2)c2ccccc21` (centres undefined) as the compound, how does the IC50 read?
**A.** 110 nM

**Q.** With `COc1cccc(CCC(=O)NC2N=C(c3ccc(C(N)=O)cc3)c3ccccc3N(C)C2=O)c1` (centres undefined) as the compound, how does the IC50 read?
**A.** 1600 nM

**Q.** For `CN1C(=O)C(NC(=O)CCc2ccc(F)cc2)N=C(c2ccc(C(N)=O)cc2)c2ccccc21` (centres undefined), which IC50 is on record?
**A.** 110 nM

**Q.** With `CN1C(=O)[C@@H](NC(=O)C(Cc2ccc(Cl)c(Cl)c2)c2ccncc2)N=C(c2ccccc2)c2ccccc21` (single isomer, unassigned; diastereomer B) as the compound, how does the IC50 read?
**A.** 190 nM

**Q.** With `CN1C(=O)C(NC(=O)CCc2ccc(Cl)cc2)N=C(c2ccc(C(N)=O)cc2)c2ccccc21` (centres undefined) as the compound, how does the IC50 read?
**A.** 15 nM

**Q.** With `CC(C)C(Cc1ccc(Cl)c(Cl)c1)C(=O)N[C@H]1N=C(c2ccccc2)c2ccccc2N(C)C1=O` (single isomer, unassigned; diastereomer B) as the compound, how does the IC50 read?
**A.** 240 nM

**Q.** With `C[C@@H](Cc1ccc(Cl)cc1Cl)C(=O)NC1N=C(c2ccc(C(N)=O)cc2)c2ccccc2N(C)C1=O` (single isomer, unassigned; diastereomer B) as the compound, how does the IC50 read?
**A.** 1.9 nM

**Q.** Which IC50 does the source give for `Cc1nc(C(Cc2ccc(Cl)c(Cl)c2)C(=O)N[C@H]2N=C(c3ccccc3)c3ccccc3N(C)C2=O)cs1` (some centres undefined) here?
**A.** 640 nM

**Q.** With `C[C@H](Cc1ccc(Cl)cc1Cl)C(=O)NC1N=C(c2ccc(C(N)=O)cc2)c2ccccc2N(C)C1=O` (single isomer, unassigned; diastereomer B) as the compound, how does the IC50 read?
**A.** 920 nM

**Q.** For `CN1C(=O)C(NC(=O)Cc2ccc(Cl)cc2Cl)N=C(c2ccc(C(N)=O)cc2)c2ccccc21` (centres undefined), which IC50 is on record?
**A.** > 10000 nM

**Q.** With `CN1C(=O)[C@@H](NC(=O)[C@@H](Cc2ccc(Cl)c(Cl)c2)NC(=O)OC(C)(C)C)N=C(c2ccccc2)c2ccccc21` as the compound, how does the IC50 read?
**A.** 750 nM

**Q.** With `CN1C(=O)C(NC(=O)CCc2cc(C(F)(F)F)cc(C(F)(F)F)c2)N=C(c2ccc(C(N)=O)cc2)c2ccccc21` (centres undefined) as the compound, how does the IC50 read?
**A.** 400 nM

**Q.** Which IC50 does the source give for `CN1C(=O)C(NC(=O)CCc2cccc(O)c2)N=C(c2ccc(C(N)=O)cc2)c2ccccc21` (centres undefined) here?
**A.** 6800 nM

**Q.** With `C[C@@H](Cc1ccc(Cl)cc1Cl)C(=O)N[C@H]1N=C(c2ccccc2)c2ccccc2N(C)C1=O` as the compound, how does the IC50 read?
**A.** 820 nM

**Q.** Which IC50 does the source give for `COc1ccc(CCC(=O)NC2N=C(c3ccc(C(N)=O)cc3)c3ccccc3N(C)C2=O)cc1` (centres undefined) here?
**A.** 1340 nM

**Q.** With `CN1C(=O)C(NC(=O)CCc2cc(Cl)ccc2Cl)N=C(c2ccc(C(N)=O)cc2)c2ccccc21` (centres undefined) as the compound, how does the IC50 read?
**A.** 60 nM

**Q.** With `CN1C(=O)[C@@H](NC(=O)[C@@H](Cc2ccc(Cl)c(Cl)c2)N2CCCC2)N=C(c2ccccc2)c2ccccc21` as the compound, how does the IC50 read?
**A.** 405 nM

**Q.** For `CN1C(=O)C(NC(=O)CCc2ccccc2Cl)N=C(c2ccc(C(N)=O)cc2)c2ccccc21` (centres undefined), which IC50 is on record?
**A.** 305 nM

**Q.** Which IC50 does the source give for `CN1C(=O)C(NC(=O)C(C)(C)Cc2ccc(Cl)cc2Cl)N=C(c2ccc(C(N)=O)cc2)c2ccccc21` (centres undefined) here?
**A.** 400 nM

**Q.** With `CN1C(=O)C(NC(=O)/C=C/c2ccc(Cl)cc2Cl)N=C(c2ccc(C(N)=O)cc2)c2ccccc21` (centres undefined) as the compound, how does the IC50 read?
**A.** 4700 nM

**Q.** For `Cc1ccc(CCC(=O)NC2N=C(c3ccc(C(N)=O)cc3)c3ccccc3N(C)C2=O)cc1` (centres undefined), which IC50 is on record?
**A.** 180 nM

**Q.** Which IC50 does the source give for `CN1C(=O)[C@@H](NC(=O)[C@H](Cc2ccc(Cl)c(Cl)c2)c2ccc(F)cc2)N=C(c2ccccc2)c2ccccc21` here?
**A.** 15 nM

**Q.** With `CN1C(=O)[C@@H](NC(=O)[C@@H](Cc2ccc(Cl)c(Cl)c2)c2ccccc2)N=C(c2ccccc2)c2ccccc21` as the compound, how does the IC50 read?
**A.** 72 nM
